Reference: patent publication US20060183901A1, “Crystalline form of an indazole-carboxamide compound” (THERAVANCE, INC., priority 2005, published 2006)
Each block holds one compound with its values, some of them ahead of it.

What was measured:
Assay type in all cases: physicochemical
[1] = Thermogravimetric analysis (TGA)
Protocol: Thermogravimetric analysis (TGA) was performed using a TA Instruments Model Q-500 module. Data were collected and analyzed using TA Instruments Thermal Advantage for Q Series™ software. […] The balance and furnace chambers were purged with nitrogen during use. Representative TGA traces for samples of crystalline dihydrochloride and dihydrobromide salts of the invention are also shown in FIGS. 2 and 4, respectively.
(§1) The crystalline acid salts of the compound of formula I of Comparative Examples 1-4 were analyzed by PXRD, DSC, and TGA. The temperatures at which endothermic heat flow was observed by DSC, and weight loss was observed by TGA, along with confirmation of crystallinity by PXRD are summarized in Table II where the stoichiometry is indicated by the number of molar equivalents of acid used to prepare the acid salt.

[2] = Differential scanning calorimetry (DSC)
Protocol: Differential scanning calorimetry (DSC) was performed using a TA Instruments
Model Q-100 module. Data were collected and analyzed using TA Instruments Thermal Advantage for Q Series™ software. A sample of about 1-2 mg was accurately weighed into an aluminum pan with lid. The sample was evaluated using a linear heating ramp of 5° C./min from ambient temperature to at least 225° C. The DSC cell was purged with dry nitrogen during use. Representative DSC traces for samples of the crystalline dihydrochloride and dihydrobromide salts of the invention are shown in FIGS. 2 and 4, respectively.
as §1

[3] = Solid state stability assessment (HPLC, Karl Fischer)
Protocol: Samples of the dihydrochloride salt of the invention, about 100 mg each, were stored in multiple 4 mL glass vials with Teflon lined lids at 25° C. and 60% relative humidity (RH) and at 40° C. and 75% RH in open and closed containers. At specific intervals, the contents of a representative vial was removed and analyzed by the Karl Fisher method for water content and by the following HPLC method: • Column: Agilent Zorbax Bonus RP, 4.6×250 mm, 5 μm (Agilent Part No. 880668-901); • Mobile Phase A: 88% water, 2% acetonitrile, 10% 100 mM potassium phosphate; • Mobile Phase B: 20% water, 70% acetonitrile; 10% 100 mM potassium phosphate; • Flow rate: 1.5 mL/min; • Injection Volume: 10 μL • Detector: 214 nm; • Gradient—Time in minutes (% Mobile Phase B): 0.0 (2); 1.0 (2); 9.0 (22); • 19.0 (28); 33.0 (63); 36.3 (100); 37.0 (2); and 42.0 (2).
Samples were prepared as 0.25 to 0.75 mg/mL solutions in 5% acetonitrile, 85% water, 10% 100 mM potassium phosphate for injection onto the HPLC.
The initial water content was 1.2%, as determined by Karl Fischer titration using a Brinkman Metrohm (Westbury, N.Y.) Karl Fischer Model 831 coulometer. After 6 months the water content of the samples stored in open containers at 25° C./60% RH and at 40° C./75% RH was 2.9% and 5.3%, respectively, an increase of 1.7% and 4.1%, respectively.

[4] = Dynamic moisture sorption assessment; conditions: humidity range of 40% to 60% relative humidity
Protocol: Dynamic moisture sorption (DMS) assessment was performed at 25° C. using a VTI atmospheric microbalance, SGA-100 system (VTI Corp., Hialeah, Fla. 33016). A sample size of approximately 5-10 mg was used and the humidity was set at the ambient value at the start of the analysis. A typical DMS analysis consisted of three scans: ambient to 2% relative humidity (RH), 2% RH to 90% RH, 90% RH to 5% RH at a scan rate of 5% RH/step. The mass was measured every two minutes and the RH was changed to the next value (+5% RH) when the mass of the sample was stable to within 0.01% for 5 consecutive points. Representative DMS traces for samples of crystalline dihydrochloride and dihydrobromide salts of the invention are shown in FIGS. 5 and 6, respectively.

[5] = Storage stability of the crystalline hydrate at 40° C. and 75% RH
Protocol: A sample of the dihydrochloride salt of the invention, about 50 mg, was stored in a 20 mL glass vial at 40° C. and 75% relative humidity. At specific intervals, aliquots of sample were dispensed and analyzed by PXRD and by DSC and TGA. The low temperature (i.e. below 150° C.) features in the DSC and TGA traces are characteristic of a hydrate. The hydrate form is observed to be stable when stored at 40° C. and 75% RH.

[6] = 6 months, open containers, 25° C./60% RH
[7] = 6 months, open containers, 40° C./75% RH
[8] = six months at 25° C. and 60% relative humidity

Compound: CC(=O)N1CCN(CCN2[C@@H]3CC[C@H]2C[C@@H](NC(=O)c2nn(C(C)C)c4ccccc24)C3)CC1.Cl.Cl [dihydrochloride salt, 1-isopropyl-1H-indazole-3-carboxylic Acid {(1S,3R,5R)-8-[2-(4-acetylpiperazin-1-yl)ethyl]-8-azabicyclo[3.2.1]oct-3-yl}amide dihydrochloride]
TGA: temperature below which no (significant) thermal event [1]: about 180 °C | DSC: temperature below which no (significant) thermal events [2]: about 200 °C | simultaneous melting and decomposition temperature (DSC and TGA) [2]: 180-200 °C | change in potency ([3]; 6 months of storage, all conditions (25° C./60% RH, 40° C./75% RH, open and closed)): no detectable change in potency | increase of water content [3, 6]: 1.7% | water content (Karl Fischer) [3, 6]: 2.9% | increase of water content [3, 7]: 4.1% | water content (Karl Fischer) [3, 7]: 5.3% | initial potency compared with the freebase (HPLC area percentage) ([3]; initial): 82.4% | water content (Karl Fischer) ([3]; initial): 1.2% | chemical degradation by HPLC [3, 8]: no chemical degradation | gain in moisture content [3, 8]: < 2% | weight gain (hygroscopicity) [4]: less than 1%

Compound: benzoate
TGA: temperature of weight loss [1]: ˜100 °C | DSC endotherm (temperature of endothermic heat flow) [2]: <150 °C

Compound: CC(=O)N1CCN(CCN2[C@@H]3CC[C@H]2CC(NC(=O)c2nn(C(C)C)c4ccccc24)C3)CC1.O=C(O)/C=C/C(=O)O (stereo partly drawn) [fumarate, fumaric Acid Salt of 1-isopropyl-1H-indazole-3-carboxylic acid {(1S,3R,5R)-8-[2-(4-acetylpiperazin-1-yl)ethyl]-8-azabicyclo[3.2.1]oct-3-yl}amide]
TGA: temperature of weight loss [1]: loss ˜100 °C | TGA: weight loss [1]: 5-6% wt. | DSC endotherm (temperature of endothermic heat flow) [2]: <150 °C

Compound: CC(=O)N1CCN(CCN2[C@@H]3CC[C@H]2CC(NC(=O)c2nn(C(C)C)c4ccccc24)C3)CC1.Cc1ccc(S(=O)(=O)O)cc1 (stereo partly drawn) [tosylate, p-toluene Sulfonic Acid Salt of 1-isopropyl-1H-indazole-3-carboxylic acid {(1S,3R,5R)-8-[2-(4-acetylpiperazin-1-yl)ethyl]-8-azabicyclo[3.2.1]oct-3-yl}amide]
DSC endotherm (temperature of endothermic heat flow) [2]: >200 °C

Compound: CC(=O)N1CCN(CCN2[C@@H]3CC[C@H]2C[C@@H](NC(=O)c2nn(C(C)C)c4ccccc24)C3)CC1.O=P(O)(O)O [phosphate (1), Phosphoric Acid Salt of 1-isopropyl-1H-indazole-3-carboxylic Acid {(1S,3R,5R)-8-[2-(4-acetylpiperazin-1-yl)ethyl]-8-azabicyclo[3.2.1]oct-3-yl}amide]
TGA: temperature of weight loss [1]: loss <100 °C | TGA: weight loss [1]: 3-5% wt.

Compound: Br.Br.CC(=O)N1CCN(CCN2[C@@H]3CC[C@H]2CC(NC(=O)c2nn(C(C)C)c4ccccc24)C3)CC1 (stereo partly drawn) [dihydrobromide salt, 1-isopropyl-1H-indazole-3-carboxylic Acid {(1S,3R,5R)-8-[2-(4-acetylpiperazin-1-yl)ethyl]-8-azabicyclo[3.2.1]oct-3-yl}amide dihydrobromide]
TGA: temperature below which no (significant) thermal event [1]: about 250 °C | DSC: temperature below which no (significant) thermal events [2]: about 230 °C | weight gain (hygroscopicity) [4]: less than 1%

TGA: temperature of weight loss [1]: ˜100 °C | DSC endotherm (temperature of endothermic heat flow) [2]: ˜100 °C
Compound: CC(=O)O [acetate]

Compound: O=[N+]([O-])O [nitrate]
TGA: temperature of weight loss [1]: loss ˜150 °C | TGA: weight loss [1]: 5-6% wt. | DSC endotherm (temperature of endothermic heat flow) [2]: <100 °C

Compound: CC(=O)N1CCN(CCN2[C@@H]3CC[C@H]2CC(NC(=O)c2nn(C(C)C)c4ccccc24)C3)CC1.Cl.Cl.O (stereo partly drawn) [hydrate, Crystalline hydrate of 1-isopropyl-1H-indazole-3-carboxylic Acid {(1S,3R,5R)-8-[2-(4-acetylpiperazin-1-yl)ethyl]-8-azabicyclo[3.2.1]oct-3-yl}amide dihydrochloride]
change in PXRD peak positions ([5]; 8 weeks vs 12 weeks at 40° C./75% RH): no significant change in PXRD peak positions | stability of hydrate form on storage ([5]; 40° C. and 75% RH): stable
